Experimental data: article PMC4980083 (JCI insight, 2016)

What was measured:
LNCaP95 cells [1] = assay: Western blot of cell cycle G1/S-related proteins in LNCaP95 cells; type: cell-based, human; conditions: enzalutamide 5 μM, EPI-002 25 μM, I-EPI-002 5 μM; 48 hours
LNCaP95 cells [2] = assay: LNCaP95 proliferation, BrdU incorporation; type: cell-based, human; conditions: I-EPI-002 2 μM, EPI-002 25 μM, enzalutamide 5 μM; 2 days
LNCaP95 cells [3] = assay: Cell cycle analysis of LNCaP95 cells; type: cell-based, human; conditions: I-EPI-002 5 μM, EPI-002 25 μM, 48 hours
recombinant AR AF-1 = molecular target: T1, recombinant AR AF-1 (Homo sapiens, UniProt P10275); assay: Cell-free binding to recombinant AR AF-1, competition with cold EPI-002; conditions: preincubation with 60 μM EPI-002 for 6 hours
T1 sequence (P10275 142-485): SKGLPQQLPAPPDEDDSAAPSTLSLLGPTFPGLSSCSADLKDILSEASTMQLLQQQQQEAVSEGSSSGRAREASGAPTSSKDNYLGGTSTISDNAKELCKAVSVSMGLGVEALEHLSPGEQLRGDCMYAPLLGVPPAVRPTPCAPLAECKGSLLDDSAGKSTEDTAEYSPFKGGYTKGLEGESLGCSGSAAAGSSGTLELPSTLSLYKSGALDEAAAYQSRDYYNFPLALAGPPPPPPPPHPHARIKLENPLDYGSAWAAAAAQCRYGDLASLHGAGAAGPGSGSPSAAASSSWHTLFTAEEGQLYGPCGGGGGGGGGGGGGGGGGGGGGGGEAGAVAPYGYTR

recombinant AR LBD = molecular target: T2, recombinant AR LBD (Homo sapiens, UniProt P10275); assay: Fluorescence polarization competition binding, AR LBD; conditions: 1 nM fluorescently labeled ligand, AR LBD 25 nM
T2 sequence (P10275 669-900 limits assumed): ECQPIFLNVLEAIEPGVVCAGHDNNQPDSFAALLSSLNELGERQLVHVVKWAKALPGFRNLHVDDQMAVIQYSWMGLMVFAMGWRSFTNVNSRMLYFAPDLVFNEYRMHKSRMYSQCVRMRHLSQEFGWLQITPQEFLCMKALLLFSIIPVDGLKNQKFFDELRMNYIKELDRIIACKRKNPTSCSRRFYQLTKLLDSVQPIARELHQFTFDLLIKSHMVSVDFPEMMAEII

[4] = molecular target: T3, endogenous full-length AR (Homo sapiens, UniProt P10275, T878A); assay: AR transcriptional activity, PSA
T3 sequence (P10275 1-920 T878A): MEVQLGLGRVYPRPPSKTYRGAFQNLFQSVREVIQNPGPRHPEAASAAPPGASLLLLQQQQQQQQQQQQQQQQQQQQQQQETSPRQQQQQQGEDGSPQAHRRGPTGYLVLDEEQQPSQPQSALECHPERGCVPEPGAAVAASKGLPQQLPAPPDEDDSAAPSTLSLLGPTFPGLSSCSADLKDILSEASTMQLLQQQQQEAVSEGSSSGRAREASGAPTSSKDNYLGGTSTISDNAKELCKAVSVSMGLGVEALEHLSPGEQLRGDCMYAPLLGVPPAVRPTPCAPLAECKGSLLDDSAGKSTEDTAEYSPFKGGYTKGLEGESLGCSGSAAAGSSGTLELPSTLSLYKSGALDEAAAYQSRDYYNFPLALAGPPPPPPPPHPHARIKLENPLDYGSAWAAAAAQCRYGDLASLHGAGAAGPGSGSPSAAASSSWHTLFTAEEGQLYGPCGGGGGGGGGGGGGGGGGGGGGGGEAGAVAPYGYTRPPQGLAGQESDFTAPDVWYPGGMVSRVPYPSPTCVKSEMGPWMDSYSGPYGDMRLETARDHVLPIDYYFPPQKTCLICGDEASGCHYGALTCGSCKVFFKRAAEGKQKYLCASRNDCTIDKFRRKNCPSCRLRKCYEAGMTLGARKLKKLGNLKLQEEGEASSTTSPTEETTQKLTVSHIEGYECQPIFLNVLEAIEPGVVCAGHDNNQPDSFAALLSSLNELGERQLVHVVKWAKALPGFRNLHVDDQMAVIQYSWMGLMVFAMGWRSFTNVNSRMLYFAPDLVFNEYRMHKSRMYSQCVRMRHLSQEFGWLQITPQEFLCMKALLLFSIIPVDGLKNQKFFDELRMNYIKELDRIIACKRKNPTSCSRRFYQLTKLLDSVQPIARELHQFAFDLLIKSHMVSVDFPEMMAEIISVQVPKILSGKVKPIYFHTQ

CNC(=O)c1ccc(N2C(=S)N(c3ccc(C#N)c(C(F)(F)F)c3)C(=O)C2(C)C)cc1F [enzalutamide]
expression of UBE2C, cyclinD3 and cyclin-dependent kinases (CDKs) (LNCaP95 cells [1]): had no effect
protein expression of the CDK inhibitor p27kip1 (LNCaP95 cells [1]): had no effect

CC(C)(c1ccc(OC[C@H](O)CO)cc1)c1ccc(OC[C@H](O)CCl)cc1 [EPI-002, reference compound]
effect on proliferation of LNCaP95 cells (LNCaP95 cells [2]): decreased proliferation
decrease of S phase cells (LNCaP95 cells [3]): ≥ 2 fold
displacement of ^123I-EPI-002 binding to AF-1 (recombinant AR AF-1): displaced binding
competition with fluoromone for binding to AR LBD (recombinant AR LBD): did not prevent ligand-binding
inhibition of AR transcriptional activity ([4]; 25 μM, R1881 1 nM): ~75%
inhibition of AR transcriptional activity with increasing concentrations of androgen ([4]; increasing R1881, enzalutamide 5 μM, I-EPI-002 5 μM, EPI-002 25 μM): maintained effective inhibition
